From patent US9371335B2, “Spirothienopyran-piperidine derivatives as ORL-1 receptor antagonists for their use in the treatment of alcohol dependence and abuse” (Eli Lilly and Company, priority 2011, dated 2016)
“And” between values parts separate entries of the source, which are not always exact repeats. Equal values may be shown once.

Key:
P rats = assay: Free-choice ethanol self-administration in P rats; assay type: in vivo, rat; details: for Mean EtOH Consumed in g/kg (Drug-treated) / Reduction vs. Vehicle (EtOH consumed): P rats, 12 hr
From the text: Free-Choice Ethanol Self-Administration in Alcohol-Preferring Rats: P Rats:
In this procedure (modified from Rodd-Henricks Z A, McKinzie D L, Shaikh S R, Murphy J M, McBride W J, Lumeng L and Li T K (2000) Alcohol deprivation effect is prolonged in the alcohol preferring (P) rat after repeated deprivations. Alcohol Clin Exp Res 24:8-16), female P rats are obtained from a private colony (Taconic, Germantown, N.Y.), individually-housed with food, 15% ethanol (v/v, in water), and water available ad libitum, and maintained on a 12 hr. light/dark cycle (lights off at 16:00). The chambers are equipped with a force transduction system (TSE Systems, Bad Homburg, Germany) attached to the ethanol, water, and food receptacles to enable continuous monitoring of food and liquid consumption. Rats voluntarily consume 15% ethanol with a mean daily intake of roughly 5 g/kg for several months prior to drug testing. Rats are treated orally with vehicle or test compounds in the dose range of 3, 10, or 30 mg/kg (3 mL/kg dose volume, dissolved in a vehicle consisting of 20% Captisol® in 25 mM phosphate buffer at pH=2), or naltrexone (10 mg/kg, 1 mL/kg dose volume, dissolved in water) immediately prior to the onset of the dark cycle, using a within-subjects, crossover design (3-4 day washout between subsequent doses). In a separate experiment, rats receive oral administration of vehicle followed by 4 daily oral doses of vehicle or 30 mg/kg test compound immediately prior to the onset of the dark cycle, using a between-subjects design.

[1] = test system: Alcohol-Preferring (P) rats; assay: Operant ethanol self-administration in P rats (progressive ratio schedule); assay type: in vivo, rat; details: female P rats, 10 mg/kg oral
From the text: Operant Self-Administration in P rats:
Female P rats are obtained and pair-housed from a private colony (Taconic, Germantown, N.Y.). In order to reduce novelty-induced avoidance of ethanol, the water bottle on the homecage is replaced with a bottle containing 15% ethanol in water (v/v, in water) for two days prior to operant training. Throughout the rest of the experiment, rats receive ad libitum access to water and standard laboratory chow, with no further access to ethanol in the homecage.
Rats are trained to press a lever for ethanol reinforcement in daily 30-min sessions conducted in standard rat operant chambers contained within sound-attenuating chambers (MED Associates, Inc., St. Albans, Vt.). The chambers consist of two stainless steel and two clear Plexiglas walls. The floor grid of the operant chambers consists of 0.5 cm diameter stainless steel bars placed approximately 1.5 cm apart. Each operant chamber contains two retractable operant levers located approximately 6 cm above the grid floor and 13 cm apart. A recessed trough is located in the space between the levers, through which a dipper cup (0.1 mL capacity) is raised to deliver response-contingent ethanol (15%, v/v, in water). Upon a reinforced response, a stimulus light is illuminated above the lever on which the response was made throughout the 4-sec dipper cup access. Operation of the stimuli and behavioral responses are controlled and recorded by personal computer for offline analysis (MED Associates, Inc., St. Albans, Vt.).
During operant training, responses on either lever are considered correct responses and are rewarded with 0.1 mL ethanol reinforcement. […] Once stable baseline responding is reached on an FR-1 schedule of reinforcement, the response contingency is increased to FR-2 and then again to FR-3 so that 3 lever presses are required for each reinforcement. […] Specifically, the response requirement is increased as follows: all rats begin each session at an FR-1 schedule of reinforcement; after three reinforcements, the schedule is increased to FR-2; after three reinforcements at that level, the schedule is increased by two to FR-4; after three reinforcements, the schedule is increased by two to FR-6; and so on (see for e.g. Oster S M, Toalston J E, Kuc K A, Pommer T J, Murphy J M, Lumeng L, Bell R L, McBride W J and Rodd Z A (2006) Effects of multiple alcohol deprivations on operant ethanol self-administration by high-alcohol-drinking replicate rat lines. Alcohol 38:155-164). Each session lasts a total of 30 min, after which, all stimuli are turned off and levers are retracted. […] The amount of ethanol consumed is calculated from the number of active lever presses, and converted into g/kg EtOH consumed. Rats receive oral administration of vehicle or test compound in the dose range of 3, 10, or 30 mg/kg (3 mL/kg dose volume, dissolved in a vehicle consisting of 20% Captisol® in 25 mM phosphate buffer at pH=2), or the nonselective opioid receptor antagonist naltrexone (10 mg/kg) as a positive control, 60 min. prior to the session, using a within-subjects, crossover design (3-4 day washout between subsequent doses). On a separate occasion, rats receive oral administration of vehicle or 30 mg/kg test compound (1 mL/kg dose volume, dissolved in a vehicle consisting of 20% Captisol® in 25 mM phosphate buffer), 30 min prior to the session, using a crossover design.

| Compound | Mean EtOH Consumed in g/kg (Drug-treated) (P rats; 3 mg/kg oral) [g/kg] | Reduction vs. Vehicle (EtOH consumed) (P rats; 3 mg/kg oral) [%] | Mean EtOH Consumed in g/kg (Drug-treated) (P rats; 10 mg/kg oral) [g/kg] | Reduction vs. Vehicle (EtOH consumed) (P rats; 10 mg/kg oral) [%] | Mean EtOH Consumed in g/kg (Drug-treated) (P rats; 30 mg/kg oral) [g/kg] | Reduction vs. Vehicle (EtOH consumed) (P rats; 30 mg/kg oral) [%] | ethanol self-administration (P rats; free-choice access, P rats and msP rats, result in words) | Mean EtOH Consumed in g/kg (Drug-treated) (P rats; 10 mg/kg oral, 10 mg/kg) | Reduction vs. Vehicle (EtOH consumed) (P rats; 10 mg/kg oral, 10 mg/kg) | Reduction vs. Vehicle (lever presses) [1] [%] | Mean Number of Lever Presses (Drug-treated) ([1]; 30-min progressive ratio session) |
| --- | --- | --- | --- | --- | --- | --- | --- | --- | --- | --- | --- |
| Cc1nn(-c2c(F)cccc2F)cc1CN1CCC2(CC1)OCC(F)(F)c1cc(Cl)sc12 [Compound 5, 2-chloro-1′-[[l-(2,6-difluorophenyl)-3-methyl-pyrazol-4-yl]methyl]-4,4-difluoro-spiro[5H-thieno[2,3-c]pyran-7,4′-piperidine]] | 4.39 | 15.0 | 4.05 | 21.5 | 3.74 | 27.6 | significantly reduce ethanol self-administration | – | – | – | – |
| O=C1CC[C@@]2(O)[C@H]3Cc4ccc(O)c5c4[C@@]2(CCN3CC2CC2)[C@H]1O5 [naltrexone, reference compound] | – | – | – | – | – | – | – | 3.30 g/kg and 2.83 g/kg and 3.31 g/kg | 30.2% and 45.0% and 36.0% | 75.4 | 106.33 |
